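Tested at 5 concentrations; 48 h exposure; 96-well plates; endpoints linearly interpolated, else capped at highest concentration. GI50 marks 50% less growth. TGI: concentration producing complete growth inhibition.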
Key:
Experiment in all cases: NCI-60 cell line screen, 48 h
A549 NSCLC = test system: A549 NSCLC
EKVX NSCLC = test system: EKVX NSCLC
CCRF-CEM leukemia = test system: CCRF-CEM leukemia
MALME-3M melanoma = test system: MALME-3M melanoma
HL-60(TB) leukemia = test system: HL-60(TB) leukemia
HT29 colon = test system: HT29 colon
UACC-62 melanoma = test system: UACC-62 melanoma
HCT-116 colon = test system: HCT-116 colon
SK-MEL-5 melanoma = test system: SK-MEL-5 melanoma
SN12C renal = test system: SN12C renal
OVCAR-5 ovarian = test system: OVCAR-5 ovarian
ACHN renal = test system: ACHN renal
TK-10 renal = test system: TK-10 renal
SF-539 CNS = test system: SF-539 CNS
SF-295 CNS = test system: SF-295 CNS
SR leukemia = test system: SR leukemia
UACC-257 melanoma = test system: UACC-257 melanoma
CAKI-1 renal = test system: CAKI-1 renal
SK-OV-3 ovarian = test system: SK-OV-3 ovarian
MDA-MB-435 = test system: MDA-MB-435
SNB-75 CNS = test system: SNB-75 CNS
NCI-H226 lung = test system: NCI-H226 lung
HOP-62 NSCLC = test system: HOP-62 NSCLC
DU-145 prostate = test system: DU-145 prostate
SK-MEL-28 melanoma = test system: SK-MEL-28 melanoma
IGROV1 ovarian = test system: IGROV1 ovarian
KM12 colon = test system: KM12 colon
SK-MEL-2 melanoma = test system: SK-MEL-2 melanoma
OVCAR-8 ovarian = test system: OVCAR-8 ovarian
K-562 leukemia = test system: K-562 leukemia
T-47D breast = test system: T-47D breast
U251 CNS = test system: U251 CNS
786-0 renal = test system: 786-0 renal
RXF 393 renal = test system: RXF 393 renal
BT-549 breast = test system: BT-549 breast
NCI/ADR-RES ovarian = test system: NCI/ADR-RES ovarian
SW-620 colon = test system: SW-620 colon
OVCAR-4 ovarian = test system: OVCAR-4 ovarian
OVCAR-3 ovarian = test system: OVCAR-3 ovarian
HS 578T breast = test system: HS 578T breast
NCI-H23 lung = test system: NCI-H23 lung
HCC-2998 colon = test system: HCC-2998 colon
RPMI-8226 leukemia = test system: RPMI-8226 leukemia
UO-31 renal = test system: UO-31 renal
HOP-92 NSCLC = test system: HOP-92 NSCLC
LOX IMVI melanoma = test system: LOX IMVI melanoma
MDA-MB-231 breast = test system: MDA-MB-231 breast
COLO 205 colon = test system: COLO 205 colon
PC-3 prostate = test system: PC-3 prostate
HCT-15 colon = test system: HCT-15 colon
NCI-H522 lung = test system: NCI-H522 lung
M14 melanoma = test system: M14 melanoma

Question: `CO/N=C(\C)c1cccc(Nc2cc(-c3ccccc3)nc3c(O)cccc23)c1` was tested. Which GI50 (A549 NSCLC) did it give?
Answer: 5.99 µM

Question: What about the TGI (A549 NSCLC) of the same molecule?
Answer: 21.8 µM

Question: And the GI50 (EKVX NSCLC)?
Answer: 17.4 µM

Question: And the TGI (EKVX NSCLC)?
Answer: 59.6 µM

Question: What about the GI50 (CCRF-CEM leukemia) of the same molecule?
Answer: 2.57 µM

Question: And the TGI (CCRF-CEM leukemia)?
Answer: 8.74 µM

Question: And the GI50 (MALME-3M melanoma)?
Answer: 12.5 µM

Question: And the TGI (MALME-3M melanoma)?
Answer: 35.4 µM

Question: What about the GI50 (HL-60(TB) leukemia) of the same molecule?
Answer: 23 µM

Question: And the TGI (HL-60(TB) leukemia)?
Answer: > 100 µM

Question: And the GI50 (HT29 colon)?
Answer: 21.8 µM

Question: What about the TGI (HT29 colon) of the same molecule?
Answer: 59.7 µM

Question: What about the GI50 (UACC-62 melanoma) of the same molecule?
Answer: 6.01 µM

Question: And the TGI (UACC-62 melanoma)?
Answer: 29.2 µM

Question: And the GI50 (HCT-116 colon)?
Answer: 3.21 µM

Question: What about the TGI (HCT-116 colon) of the same molecule?
Answer: 15.2 µM

Question: And the GI50 (SK-MEL-5 melanoma)?
Answer: 16.6 µM

Question: And the TGI (SK-MEL-5 melanoma)?
Answer: 39.2 µM

Question: And the GI50 (SN12C renal)?
Answer: 5.04 µM

Question: And the TGI (SN12C renal)?
Answer: 24.5 µM

Question: What about the GI50 (OVCAR-5 ovarian) of the same molecule?
Answer: 20.3 µM

Question: What about the TGI (OVCAR-5 ovarian) of the same molecule?
Answer: 60.7 µM

Question: What about the GI50 (ACHN renal) of the same molecule?
Answer: 6.04 µM

Question: What about the TGI (ACHN renal) of the same molecule?
Answer: 28.1 µM

Question: What about the GI50 (TK-10 renal) of the same molecule?
Answer: 6.89 µM

Question: And the TGI (TK-10 renal)?
Answer: 22.8 µM

Question: And the GI50 (SF-539 CNS)?
Answer: 10.8 µM

Question: And the TGI (SF-539 CNS)?
Answer: 39.9 µM

Question: And the GI50 (SF-295 CNS)?
Answer: 2.17 µM

Question: And the TGI (SF-295 CNS)?
Answer: 5.55 µM

Question: And the GI50 (SR leukemia)?
Answer: 3.83 µM

Question: And the TGI (SR leukemia)?
Answer: 29.8 µM

Question: What about the GI50 (UACC-257 melanoma) of the same molecule?
Answer: 4.07 µM

Question: What about the TGI (UACC-257 melanoma) of the same molecule?
Answer: 22.6 µM

Question: And the GI50 (CAKI-1 renal)?
Answer: 2.78 µM

Question: What about the TGI (CAKI-1 renal) of the same molecule?
Answer: 13.7 µM

Question: And the GI50 (SK-OV-3 ovarian)?
Answer: 8.62 µM

Question: And the TGI (SK-OV-3 ovarian)?
Answer: 34.5 µM

Question: What about the GI50 (MDA-MB-435) of the same molecule?
Answer: 1.97 µM

Question: And the TGI (MDA-MB-435)?
Answer: 5.56 µM

Question: What about the GI50 (SNB-75 CNS) of the same molecule?
Answer: 20.5 µM

Question: And the TGI (SNB-75 CNS)?
Answer: 96.2 µM

Question: What about the GI50 (NCI-H226 lung) of the same molecule?
Answer: 19.8 µM

Question: And the TGI (NCI-H226 lung)?
Answer: > 100 µM

Question: What about the GI50 (HOP-62 NSCLC) of the same molecule?
Answer: 3.47 µM

Question: What about the TGI (HOP-62 NSCLC) of the same molecule?
Answer: 8.39 µM

Question: What about the GI50 (DU-145 prostate) of the same molecule?
Answer: 9.2 µM

Question: And the TGI (DU-145 prostate)?
Answer: 28 µM

Question: What about the GI50 (SK-MEL-28 melanoma) of the same molecule?
Answer: 12.4 µM

Question: And the TGI (SK-MEL-28 melanoma)?
Answer: 43.5 µM

Question: What about the GI50 (IGROV1 ovarian) of the same molecule?
Answer: 2.46 µM

Question: What about the TGI (IGROV1 ovarian) of the same molecule?
Answer: 8.29 µM

Question: What about the GI50 (KM12 colon) of the same molecule?
Answer: 3.92 µM

Question: And the TGI (KM12 colon)?
Answer: 19.1 µM

Question: What about the GI50 (SK-MEL-2 melanoma) of the same molecule?
Answer: 5.76 µM

Question: And the TGI (SK-MEL-2 melanoma)?
Answer: > 100 µM

Question: What about the GI50 (OVCAR-8 ovarian) of the same molecule?
Answer: 5.52 µM

Question: And the TGI (OVCAR-8 ovarian)?
Answer: 25.9 µM

Question: And the GI50 (K-562 leukemia)?
Answer: 0.656 µM

Question: What about the TGI (K-562 leukemia) of the same molecule?
Answer: > 100 µM

Question: What about the GI50 (T-47D breast) of the same molecule?
Answer: 4.32 µM

Question: What about the TGI (T-47D breast) of the same molecule?
Answer: 26.7 µM

Question: What about the GI50 (U251 CNS) of the same molecule?
Answer: 4.38 µM

Question: What about the TGI (U251 CNS) of the same molecule?
Answer: 16.7 µM

Question: What about the GI50 (786-0 renal) of the same molecule?
Answer: 0.307 µM

Question: And the TGI (786-0 renal)?
Answer: 3.38 µM

Question: What about the GI50 (RXF 393 renal) of the same molecule?
Answer: 3.69 µM

Question: And the TGI (RXF 393 renal)?
Answer: 14.9 µM

Question: And the GI50 (BT-549 breast)?
Answer: 15.1 µM

Question: What about the TGI (BT-549 breast) of the same molecule?
Answer: 55.1 µM

Question: And the GI50 (NCI/ADR-RES ovarian)?
Answer: 2.02 µM

Question: What about the TGI (NCI/ADR-RES ovarian) of the same molecule?
Answer: 13.5 µM

Question: What about the GI50 (SW-620 colon) of the same molecule?
Answer: 4.5 µM

Question: And the TGI (SW-620 colon)?
Answer: 19.6 µM

Question: And the GI50 (OVCAR-4 ovarian)?
Answer: 61.3 µM

Question: And the TGI (OVCAR-4 ovarian)?
Answer: > 100 µM

Question: And the GI50 (OVCAR-3 ovarian)?
Answer: 2.34 µM

Question: What about the TGI (OVCAR-3 ovarian) of the same molecule?
Answer: 7.12 µM

Question: What about the GI50 (HS 578T breast) of the same molecule?
Answer: 5.31 µM

Question: And the TGI (HS 578T breast)?
Answer: 38.8 µM

Question: And the GI50 (NCI-H23 lung)?
Answer: 3.92 µM

Question: And the TGI (NCI-H23 lung)?
Answer: 24 µM

Question: What about the GI50 (HCC-2998 colon) of the same molecule?
Answer: 2.88 µM

Question: What about the TGI (HCC-2998 colon) of the same molecule?
Answer: 12.6 µM

Question: What about the GI50 (RPMI-8226 leukemia) of the same molecule?
Answer: 2.91 µM

Question: And the TGI (RPMI-8226 leukemia)?
Answer: 8.59 µM

Question: What about the GI50 (UO-31 renal) of the same molecule?
Answer: 4.58 µM

Question: What about the TGI (UO-31 renal) of the same molecule?
Answer: 60.5 µM

Question: What about the GI50 (HOP-92 NSCLC) of the same molecule?
Answer: 5.28 µM

Question: What about the TGI (HOP-92 NSCLC) of the same molecule?
Answer: 28.9 µM

Question: What about the GI50 (LOX IMVI melanoma) of the same molecule?
Answer: 8.56 µM

Question: What about the TGI (LOX IMVI melanoma) of the same molecule?
Answer: 24.3 µM

Question: And the GI50 (MDA-MB-231 breast)?
Answer: 2.74 µM

Question: What about the TGI (MDA-MB-231 breast) of the same molecule?
Answer: 9.4 µM

Question: What about the GI50 (COLO 205 colon) of the same molecule?
Answer: 18.3 µM

Question: What about the TGI (COLO 205 colon) of the same molecule?
Answer: 46.1 µM

Question: And the GI50 (PC-3 prostate)?
Answer: 4.13 µM

Question: What about the TGI (PC-3 prostate) of the same molecule?
Answer: 24.3 µM

Question: And the GI50 (HCT-15 colon)?
Answer: 3.38 µM

Question: And the TGI (HCT-15 colon)?
Answer: 16.9 µM

Question: What about the GI50 (NCI-H522 lung) of the same molecule?
Answer: 2.78 µM

Question: What about the TGI (NCI-H522 lung) of the same molecule?
Answer: 6.95 µM

Question: What about the GI50 (M14 melanoma) of the same molecule?
Answer: 3.13 µM

Question: What about the TGI (M14 melanoma) of the same molecule?
Answer: 18.2 µM

Reference: PubChem BioAssay (NCI)
